Reference: patent US6333428A, “6-fluorobicyclo[3.1.0]hexane derivatives” (Taisho Pharmaceutical Co., Ltd., priority 1998, dated 2001)

biological target: T1, metabotropic glutamate receptors mG1uR2 (Rattus norvegicus, UniProt P31421); assay: Effect of Test Compounds on cAMP Accumulation (inhibition of Forskolin-stimulated cAMP accumulation in CHO cells stably expressing mGluR2); format: cell-based; details: not given
T1 construct: expressed in transfected cells
Description: After the medium was replaced with an L-glutamine free medium, they were cultured for 4 hours, and the supernatant liquid was aspirated. After adding 150 μl of PBS(+)-IBMX (10 mM PBS(-), 1 mM MgC12,1 mM CaCl2, 1 mM IBMX), incubation was conducted at 37° C. under the presence of 5% CO2 for 20 minutes. Once again the supernatant liquid was suctioned off, 60 μl of 10^-5 M Forskolin and PBS (+)-IBMX containing the specimens listed in Table 1 between 10^-10 and 10^-4 M were added, incubation was carried out for 15 minutes at 37° C. under the presence of 5% CO2, and a study was carried out for the inhibitory effect of the agonists on the Forskolin stimulation cAMP accumulation quantity [for control, the conditions were set to Forskolin with no addition of the compounds (Tanabe et al., Neuron, 8, 169-179 (1992))]. The reactions were halted by adding 100 μl of ice-cooled ethanol, the entire quantity of the supernatant liquid was collected in a separate plate, then was dried up at normal temperature with an evaporator, and was kept at -20° C. In the dried-up samples, the quantity of cAMP was measured using a cAMP EIA kit (from the Amasham company). The control value was subtracted from each cAMP quantity.

T1 sequence (P31421 19-872): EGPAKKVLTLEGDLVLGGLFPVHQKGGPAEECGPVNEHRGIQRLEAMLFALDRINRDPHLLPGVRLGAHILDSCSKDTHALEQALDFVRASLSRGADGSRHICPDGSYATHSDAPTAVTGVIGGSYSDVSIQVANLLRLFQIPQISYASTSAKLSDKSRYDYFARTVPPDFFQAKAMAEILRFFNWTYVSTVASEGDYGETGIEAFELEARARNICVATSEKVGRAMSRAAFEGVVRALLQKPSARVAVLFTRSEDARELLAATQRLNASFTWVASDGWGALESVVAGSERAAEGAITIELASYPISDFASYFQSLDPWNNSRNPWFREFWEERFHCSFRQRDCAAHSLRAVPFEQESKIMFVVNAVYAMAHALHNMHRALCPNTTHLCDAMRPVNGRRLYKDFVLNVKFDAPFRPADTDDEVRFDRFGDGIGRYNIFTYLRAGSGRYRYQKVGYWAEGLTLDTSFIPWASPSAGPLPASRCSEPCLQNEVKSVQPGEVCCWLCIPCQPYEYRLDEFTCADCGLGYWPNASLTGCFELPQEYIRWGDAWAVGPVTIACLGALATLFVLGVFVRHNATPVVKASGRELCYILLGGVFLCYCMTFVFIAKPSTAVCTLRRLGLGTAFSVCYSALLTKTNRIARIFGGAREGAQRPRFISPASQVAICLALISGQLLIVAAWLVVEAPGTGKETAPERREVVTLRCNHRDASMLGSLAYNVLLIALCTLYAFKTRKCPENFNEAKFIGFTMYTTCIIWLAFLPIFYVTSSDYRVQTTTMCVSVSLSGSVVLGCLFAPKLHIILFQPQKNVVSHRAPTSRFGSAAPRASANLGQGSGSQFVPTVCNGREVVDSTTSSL

Row | SMILES | IC50
1 | N[C@@]1(C(=O)O)CC[C@@H](C(=O)O)C1 [(1s,3R)-ACPD, (1S, 3R)-1-aminocyclopentane-1,3-dicarboxylic acid, reference compound] | 1500 nM

same assay, conditions: CHO cells stably expressing mGluR2; 10^-5 M Forskolin; specimens 10^-10 to 10^-4 M; 15 minutes at 37° C.; cAMP EIA kit; agonist

Row | IC50 | SMILES
2 | 1.26 nM | N[C@@]1(C(=O)O)CC(=O)[C@@H]2[C@H]1[C@@]2(F)C(=O)O (racemic) [Comp. 3, (1RS, 2SR, 5SR, 6SR)-2-amino-6-fluoro-4-oxobicyclo[3.1.0]hexane-2,6-dicarboxylic acid]
3 | 34.2 nM | N[C@@]1(C(=O)O)CC[C@@H]2[C@H]1[C@@]2(F)C(=O)O (racemic) [Comp. 1, (1RS, 2SR, 5RS, 6RS)-2-amino-6-fluorobicyclo[3.1.0]hexane-2,6-dicarboxylic acid]
4 | 0.66 nM | N[C@@]1(C(=O)O)CC(=O)[C@@H]2[C@H]1[C@@]2(F)C(=O)O (single isomer, unassigned) [Comp. 4, (+)-(1R*, 2S*, 5S*, 6S*)-2amino-6-fluoro-4-oxobicyclo [3.1.0]hexane-2,6-dicarboxylic acid]

Further lines, the molecule ahead of its results:

Row | SMILES | IC50
5 | N[C@@]1(C(=O)O)C[C@H](O)[C@@H]2[C@H]1[C@@]2(F)C(=O)O (racemic) [Comp. 5, (1RS, 2SR, 4SR, 5SR, 6SR)-2-amino-6-fluoro-4-hydroxybicyclo [3.1.0]hexane-2,6-dicarboxylic acid] | 19.6 nM
6 | N[C@H](C(=O)O)C1[C@@H](C(=O)O)[C@@H]1C(=O)O (stereo partly drawn) [DCG IV, (2S, 1'R, 2'R, 3'R)-2-(2', 3'-dicarboxycycloproyl)glycine, reference compound] | 98.3 nM
7 | N[C@@]1(C(=O)O)CC[C@@H]2[C@H]1[C@@]2(F)C(=O)O (single isomer, unassigned) [Comp. 2, (-)-(1R*, 2S*, 5R*, 6R*)-2-amino-6-fluorobicyclo[3.1.0]hexane-2,6-dicarboxylic acid] | 16.6 nM
8 | N[C@H](C(=O)O)[C@H]1C[C@@H]1C(=O)O [L-CCG-I, (2S, 1'S, 2'S)-2-(carboxycyclopropyl)glycine, reference compound] | 121 nM
